Source: ChEMBL document CHEMBL3797179, “Probing for improved selectivity with dipeptide-derived inhibitors of dipeptidyl peptidases 8 and 9: the impact of P1-variation” (Medchemcomm, 2016)

Key:
[1] = Inhibition of bovine testes DPP9 using Ala-Pro-p-nitroanilide as substrate preincubated for 15 mins followed by substrate addition measured for 10 mins by […]; design: species or system Bos taurus
Prolyl endopeptidase FAP = target: T1, Prolyl endopeptidase FAP (Mus musculus, UniProt P97321); assay: Inhibition of BALB/c mouse 5'-His6-tagged 3'-FLAG-tagged FAP fused with ECD expressed in HEK293 cells using Ala-Pro-p-nitroanilide as substrate preincubated for 15 mins followed by substrate addition measured for 10 mins by […]; format: cell-based
T1 sequence (P97321 whole entry): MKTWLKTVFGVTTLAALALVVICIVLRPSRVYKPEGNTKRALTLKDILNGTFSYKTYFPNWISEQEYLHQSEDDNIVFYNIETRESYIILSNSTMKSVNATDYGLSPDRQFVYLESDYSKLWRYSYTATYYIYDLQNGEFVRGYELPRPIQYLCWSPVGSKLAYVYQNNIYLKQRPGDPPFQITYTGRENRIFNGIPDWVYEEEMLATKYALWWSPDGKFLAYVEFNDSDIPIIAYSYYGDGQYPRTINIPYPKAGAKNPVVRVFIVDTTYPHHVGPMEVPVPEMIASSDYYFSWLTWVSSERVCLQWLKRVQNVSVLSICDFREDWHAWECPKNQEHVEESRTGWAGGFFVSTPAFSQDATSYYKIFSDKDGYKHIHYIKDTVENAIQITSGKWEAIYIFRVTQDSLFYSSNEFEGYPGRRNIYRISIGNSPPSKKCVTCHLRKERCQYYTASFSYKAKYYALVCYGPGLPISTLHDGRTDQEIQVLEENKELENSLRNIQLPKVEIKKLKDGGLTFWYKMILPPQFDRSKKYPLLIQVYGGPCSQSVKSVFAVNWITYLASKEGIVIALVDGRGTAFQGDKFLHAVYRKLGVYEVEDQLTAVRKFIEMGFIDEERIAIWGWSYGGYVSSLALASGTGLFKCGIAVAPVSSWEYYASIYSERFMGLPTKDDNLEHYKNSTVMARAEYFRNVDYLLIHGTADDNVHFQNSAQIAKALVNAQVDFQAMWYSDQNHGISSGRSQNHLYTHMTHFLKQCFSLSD

Dipeptidyl peptidase 2 = Dipeptidyl peptidase 2 (Homo sapiens, UniProt Q9UHL4); assay: Inhibition of DPP2 in human seminal plasma using Lys-Ala-p-nitroanilide as substrate preincubated for 15 mins followed by substrate addition measured for 10 mins by […]; format: cell-free
Dipeptidyl peptidase 8 = Dipeptidyl peptidase 8 (Homo sapiens, UniProt Q6V1X1); assay: Inhibition of full length human DPP8 expressed in baculovirus infected sf9 cells using Ala-Pro-p-nitroanilide as substrate preincubated for 15 mins followed by substrate addition measured for 10 mins by […]
Dipeptidyl peptidase 4 = Dipeptidyl peptidase 4 (Homo sapiens, UniProt P27487); assay: Inhibition of DPP4 in human seminal plasma using Gly-Pro-p-nitroanilide as substrate preincubated for 15 mins followed by substrate addition measured for 10 mins by […]; format: cell-free
Dipeptidyl peptidase 4, sequence (P27487 whole entry): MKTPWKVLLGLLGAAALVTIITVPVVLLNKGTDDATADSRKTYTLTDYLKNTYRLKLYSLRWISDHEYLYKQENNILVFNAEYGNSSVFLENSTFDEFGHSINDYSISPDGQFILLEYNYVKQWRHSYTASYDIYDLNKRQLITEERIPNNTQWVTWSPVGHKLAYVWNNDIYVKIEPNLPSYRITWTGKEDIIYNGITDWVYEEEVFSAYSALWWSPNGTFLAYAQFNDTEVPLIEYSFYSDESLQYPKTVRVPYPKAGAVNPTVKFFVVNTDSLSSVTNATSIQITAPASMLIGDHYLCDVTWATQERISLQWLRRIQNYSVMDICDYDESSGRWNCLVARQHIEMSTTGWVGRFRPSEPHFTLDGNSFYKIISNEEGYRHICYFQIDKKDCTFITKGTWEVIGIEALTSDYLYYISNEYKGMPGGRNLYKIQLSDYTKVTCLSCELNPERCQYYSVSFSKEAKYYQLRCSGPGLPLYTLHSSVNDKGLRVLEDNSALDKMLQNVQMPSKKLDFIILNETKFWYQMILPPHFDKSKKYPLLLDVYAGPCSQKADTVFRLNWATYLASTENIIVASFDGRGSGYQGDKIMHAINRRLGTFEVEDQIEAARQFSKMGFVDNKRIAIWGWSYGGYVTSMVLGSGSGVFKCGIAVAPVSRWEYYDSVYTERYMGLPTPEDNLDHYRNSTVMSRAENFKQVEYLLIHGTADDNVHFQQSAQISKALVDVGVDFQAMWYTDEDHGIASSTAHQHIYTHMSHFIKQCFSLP

Dipeptidyl peptidase 8, sequence (Q6V1X1 whole entry): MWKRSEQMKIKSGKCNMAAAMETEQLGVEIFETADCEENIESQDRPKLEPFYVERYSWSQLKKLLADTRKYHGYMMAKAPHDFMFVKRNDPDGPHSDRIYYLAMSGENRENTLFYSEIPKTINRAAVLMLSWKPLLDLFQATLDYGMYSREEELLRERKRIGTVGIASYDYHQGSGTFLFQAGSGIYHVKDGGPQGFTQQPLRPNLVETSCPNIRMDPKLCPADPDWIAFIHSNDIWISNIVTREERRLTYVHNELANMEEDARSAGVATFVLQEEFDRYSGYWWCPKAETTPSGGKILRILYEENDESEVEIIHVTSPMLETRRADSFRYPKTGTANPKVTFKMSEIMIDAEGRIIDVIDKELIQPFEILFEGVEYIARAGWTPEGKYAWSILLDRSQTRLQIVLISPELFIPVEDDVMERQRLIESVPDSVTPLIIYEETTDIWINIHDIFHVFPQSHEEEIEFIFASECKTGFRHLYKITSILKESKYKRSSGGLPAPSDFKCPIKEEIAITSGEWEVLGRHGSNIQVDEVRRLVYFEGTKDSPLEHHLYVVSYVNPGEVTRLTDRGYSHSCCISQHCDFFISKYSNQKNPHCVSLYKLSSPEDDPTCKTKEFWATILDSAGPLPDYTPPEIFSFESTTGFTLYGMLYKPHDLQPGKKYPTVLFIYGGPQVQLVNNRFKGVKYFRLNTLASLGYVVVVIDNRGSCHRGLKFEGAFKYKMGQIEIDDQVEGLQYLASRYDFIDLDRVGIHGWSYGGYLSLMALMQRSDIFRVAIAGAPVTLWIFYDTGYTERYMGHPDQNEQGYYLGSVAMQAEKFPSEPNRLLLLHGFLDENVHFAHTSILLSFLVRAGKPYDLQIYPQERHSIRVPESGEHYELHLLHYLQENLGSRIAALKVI

SMILES	IC50 [1] [nM]	IC50 (Dipeptidyl peptidase 2) [µM]	also measured
Cc1nc2c(s1)CN(C(=O)[C@@H](N)CC(=O)N1CCN(C(c3ccc(F)cc3)c3ccc(F)cc3)CC1)C2	30000	> 100	–
CCC1CCN(C(=O)[C@@H](N)[C@H](C)CC)C1 (stereo partly specified)	5700	–	–
CC[C@@H](C)[C@H](N)C(=O)N1Cc2nc(C)sc2C1	> 100000	> 100	IC50 (Dipeptidyl peptidase 8): > 25 µM
N[C@@H](CC(=O)N1CCN(C(c2ccc(F)cc2)c2ccc(F)cc2)CC1)C(=O)N1CCC(C(F)(F)F)C1 (stereo partly specified)	3500	–	–
CC[C@@H](C)[C@H](N)C(=O)N1CCC(C)C1 (stereo partly specified)	4700	–	–
C=C1CCN(C(=O)[C@@H](N)[C@H](C)CC)C1	16000	> 100	IC50 (Dipeptidyl peptidase 4): > 50 µM
CC[C@@H](C)[C@H](N)C(=O)N1C[C@H]2C[C@H]2[C@H]1C#N	2840	> 100	–
CC[C@@H](C)[C@H](N)C(=O)N1Cc2cn[nH]c2C1	> 100000	> 100	IC50 (Dipeptidyl peptidase 8): > 100 µM
CC[C@@H](C)[C@H](N)C(=O)N1Cc2conc2C1	42000	–	–
N[C@@H](CC(=O)N1CCN(C(c2ccc(F)cc2)c2ccc(F)cc2)CC1)C(=O)N1Cc2cn[nH]c2C1	> 25000	> 100	IC50 (Dipeptidyl peptidase 8): > 100 µM
CC[C@@H](C)[C@H](N)C(=O)N1Cc2ccccc2C1	–	–	IC50 (Prolyl endopeptidase FAP): > 100 µM
CC[C@@H](C)[C@H](N)C(=O)N1C[C@@H](N=[N+]=[N-])C[C@H]1C#N	–	–	IC50 (Prolyl endopeptidase FAP): > 100 µM

Further compounds by falling IC50 [1], results first:

IC50 [1] [nM]	IC50 (Dipeptidyl peptidase 2) [µM]	SMILES	also measured
2400	–	N[C@@H](CC(=O)N1CCN(C(c2ccc(F)cc2)c2ccc(F)cc2)CC1)C(=O)N1Cc2conc2C1	–
410	> 100	C=C1CCN(C(=O)[C@@H](N)CC(=O)N2CCN(C(c3ccc(F)cc3)c3ccc(F)cc3)CC2)C1	–
360	–	CCC1CCN(C(=O)[C@@H](N)CC(=O)N2CCN(C(c3ccc(F)cc3)c3ccc(F)cc3)CC2)C1 (stereo partly specified)	IC50 (Prolyl endopeptidase FAP): > 100 µM
230	> 25	N#C[C@@H]1C[C@H](N=[N+]=[N-])CN1C(=O)[C@@H](N)CC(=O)N1CCN(C(c2ccc(F)cc2)c2ccc(F)cc2)CC1	–
170	–	CC1CCN(C(=O)[C@@H](N)CC(=O)N2CCN(C(c3ccc(F)cc3)c3ccc(F)cc3)CC2)C1 (stereo partly specified)	IC50 (Prolyl endopeptidase FAP): > 100 µM
84	–	N[C@@H](CC(=O)N1CCN(C(c2ccc(F)cc2)c2ccc(F)cc2)CC1)C(=O)N1Cc2ccccc2C1	IC50 (Prolyl endopeptidase FAP): > 100 µM
83	–	C=C1C[C@@H](C#N)N(C(=O)[C@@H](N)CC(=O)N2CCN(C(c3ccc(F)cc3)c3ccc(F)cc3)CC2)C1	–
21.8	–	N#C[C@@H]1[C@@H]2C[C@@H]2CN1C(=O)[C@@H](N)CC(=O)N1CCN(C(c2ccc(F)cc2)c2ccc(F)cc2)CC1	–
12	–	C[C@H]1C[C@@H](C#N)N(C(=O)[C@@H](N)CC(=O)N2CCN(C(c3ccc(F)cc3)c3ccc(F)cc3)CC2)C1	–
